These results are taken from US20200206173A1, “A PERSONAL CARE COMPOSITION” (Conopco, Inc., d/b/a UNILEVER, priority 2017, published 2020).

In the assay the test system is IL-6 in THP-1 monocytes. The experiment in a line: Anti-inflammation efficacy in THP-1 in vitro assay: IL-6 in supernatant by ELISA after LPS stimulation. The format is cell-based. Conditions: LPS 1 μg/mL, 24 hours, PMA-differentiated THP-1. As for the experimental part:
The following procedure was used to test the anti-inflammation efficacy of the various actives alone or in combination. • (i) 5×10^5 THP-1 monocytes were placed into 24-well plates, with 100 nM PMA in the culture media to differentiate the cell. • (ii) After 72 hours differentiation, treatments as follows were supplemented into fresh media and applied to the cells: • Example 1: Vehicle control with LPS (1 μg/mL) stimulation • Example 2,3: DHA at 100 or 20 μM alone with LPS (1 μg/mL) stimulation. • Example 4,5: Niacinamide at 10000 or 5000 μM alone with LPS (1 μg/mL) stimulation. • Example 6,7: Combinations of 100 μM DHA and either 10000 or 5000 μM of niacinamide. • Example 8: Combination of 20 μM DHA and 10000 μM of niacinamide. • (iii) After 24 hours incubation, the supernatants were collected. • (iv) Then IL-6 concentration was quantified in the supernatant by BD Elisa kit. • (v) IL-6 inhibition rate was calculated in comparison with vehicle control with LPS stimulation as a reference for each treatment.
The lower the percentage, the higher the anti-inflammatory potential. The CI value (combination index) of the various combinations is also less than 1 indicating synergism.
The data below is expressed in % IL-6 inhibition rate in Table-2 below. • (i) 5×10^5 THP-1 monocytes were placed into 24-well plates, with 100 nM PMA in the culture media to differentiate the cell. • (ii) After 72 hours differentiation, treatments as follows were supplemented into fresh media and applied to the cells: • Example 9: Vehicle control with LPS (1 μg/mL) stimulation • Example 10,11,12: DHA at 100, 50 or 25 μM alone with LPS (1 μg/mL) stimulation. • Example 13,14,15: Niacinamide at 5000, 2500 or 1250 μM alone with LPS (1 μg/mL) stimulation. • Example 16: Combinations of 100 μM DHA and 5000 μM of niacinamide. • Example 17: Combination of 50 μM DHA and 2500 μM of niacinamide. • Example 18: Combination of 25 μM DHA and 1250 μM of niacinamide. • (iii) After 24 hours incubation, the supernatants were collected. • (iv) Then IL-6 concentration was tested in the supernatant by BD Elisa Kit. • (v) IL-6 inhibition rate was calculated in comparison with vehicle control with LPS stimulation as reference, for each treatment.
Experiments were carried out at various concentrations of DHA and niacinamide at mole ratios outside the invention i.e., at 1:12.5. The data below is expressed in % IL-6 inhibition rate in Table-3 below: • (i) 5×10^5 THP-1 monocytes were placed into 24-well plates, with 100nM PMA in the culture media to differentiate the cell. • (ii) After 72 hours differentiation, treatments as follows were supplemented into fresh media and applied to the cells: • Example 20: Vehicle control with LPS (1 μg/mL) stimulation • Example 21,22,23: DHA at 100, 50 or 25 μM alone with LPS (1 μg/mL) stimulation. • Example 24,25,26: Niacinamide at […] alone with LPS (1 μg/mL) stimulation. • Example 27: Combinations of 100 μM DHA and 1250 μM of niacinamide. • Example 28: Combination of 50 μM DHA and 625 μM of niacinamide. • Example 29: Combination of 25 μM DHA and […] of niacinamide. • (iii) After 24 hours incubation the supernatants were collected. • (iv) Then IL-6 concentration was tested in the supernatant by BD Elisa Kit. • (v) IL-6 inhibition rate was calculated in comparison with vehicle control with LPS stimulation as reference, for each treatment.

Molecules are shown by their SMILES.

For `CC/C=C\C/C=C\C/C=C\C/C=C\C/C=C\C/C=C\CCC(=O)O` [Example 2, docosahexaenoic acid], the “% of LPS (concentration of IL-6 as a % of that obtained for LPS)” value (“% of LPS” for short) by setting is: (20 μM of DHA alone) 58.5%; (25 μM of DHA alone) 65.5%; (50 μM of DHA alone) 38.7%; (100 μM of DHA alone) 14.7%; (100 μM of DHA alone, listed as 10) 8.3%; (100 μM of DHA alone, listed as 21) 8.3%.
With `NC(=O)c1cccnc1` [Example 4, niacinamide], the “% of LPS” value was 84.2% (317.5 μM of niacinamide alone); 77.6% (625 μM of niacinamide alone); 64.5% (1250 μM of niacinamide alone, listed as 15); 35.4% (1250 μM of niacinamide alone, listed as 24); 50.8% (2500 μM of niacinamide alone); 33.4% (5000 μM of niacinamide alone, listed as 5). Moreover, the “% of LPS” value reads like this: (5000 μM of niacinamide alone, listed as 13) 26.5%; (10000 μM of niacinamide alone) 5.7%.
